The record followed here is patent publication US5594135A, “Tricyclic DNA gyrase inhibitors” (Hoffmann-La Roche Inc., priority 1994, dated 1997).

In one test the test system is S. epidermidis 16-2. Nature of the test: Antibacterial activity in vitro (agar dilution). The settings on record: Staphylococcus epidermidis, 162, agar dilution (MuellerHinton agar), inoculum 10^4 CFU/spot, read-out: minimum inhibitory concentration (MIC). It counts as cell-based.
For a further test, the system named is S. pyogenes 15. Put plainly: Antibacterial activity in vitro (agar dilution). In kind it is cell-based. The settings on record: Streptococcus pyogenes, agar dilution (MuellerHinton agar), inoculum 10^4 CFU/spot, read-out: minimum inhibitory concentration (MIC). In general terms: In agar dilution, organisms are placed on agar that contains the substance at set levels.

The subject of another test is S. faecalis 6. Put plainly: Antibacterial activity in vitro (agar dilution). In kind it is cell-based. The settings on record: Enterococcus faecalis, agar dilution (MuellerHinton agar), inoculum 10^4 CFU/spot, read-out: minimum inhibitory concentration (MIC).
A further test has as its system S. aureus 25923. Put plainly: Antibacterial activity in vitro (agar dilution). It counts as cell-based. The settings on record: Staphylococcus aureus, agar dilution (MuellerHinton agar), inoculum 10^4 CFU/spot, read-out: minimum inhibitory concentration (MIC).
A further test concerns E. coli B. Put plainly: Antibacterial activity in vitro (agar dilution). In kind it is cell-based. The settings on record: Escherichia coli, agar dilution (MuellerHinton agar), inoculum 10^4 CFU/spot, read-out: minimum inhibitory concentration (MIC).
The next test has as its system S. aureus Smith. Put plainly: Antibacterial activity in vitro (agar dilution). In kind it is cell-based. The settings on record: Staphylococcus aureus, agar dilution (MuellerHinton agar), inoculum 10^4 CFU/spot, read-out: minimum inhibitory concentration (MIC).
A further test deals with P. aeruginosa 799/61. Put plainly: Antibacterial activity in vitro (agar dilution). It counts as cell-based. The settings on record: Pseudomonas aeruginosa, agar dilution (MuellerHinton agar), inoculum 10^4 CFU/spot, read-out: minimum inhibitory concentration (MIC).
A further test concerns the target T1, DNA gyrase (Escherichia coli, UniProt P0AES4+P0AES6).
T1 construct: supercoiling of relaxed pUC18
Put plainly: Inhibition of DNA gyrase activity (DNA gyrase supercoiling assay, relaxed pUC18 plasmid as substrate). It counts as biochemical, E. coli H560. On the procedure: A. Inhibition of DNA gyrase activity
The inhibition of DNA gyrase activity was measured using a DNA gyrase supercoiling assay according to R. Otter & N. Cozzarelli: Methods in Enzymology, Vol. 100, pp 171-180 (1983). DNA gyrase was isolated from E. coli H560, and relaxed pUC18 plasmid was used as substrate. The activities as regards inhibition of DNA gyrase activity, expressed as maximum non-effective concentration of the test compound (MNC in μg/ml) are compiled in the following Table 1: […]

≈ marks a conversion by molar mass, not a printed value. Structures can show the parent of a compound that is named as a salt.

T1 sequence (P0AES4 whole entry, one chain of several): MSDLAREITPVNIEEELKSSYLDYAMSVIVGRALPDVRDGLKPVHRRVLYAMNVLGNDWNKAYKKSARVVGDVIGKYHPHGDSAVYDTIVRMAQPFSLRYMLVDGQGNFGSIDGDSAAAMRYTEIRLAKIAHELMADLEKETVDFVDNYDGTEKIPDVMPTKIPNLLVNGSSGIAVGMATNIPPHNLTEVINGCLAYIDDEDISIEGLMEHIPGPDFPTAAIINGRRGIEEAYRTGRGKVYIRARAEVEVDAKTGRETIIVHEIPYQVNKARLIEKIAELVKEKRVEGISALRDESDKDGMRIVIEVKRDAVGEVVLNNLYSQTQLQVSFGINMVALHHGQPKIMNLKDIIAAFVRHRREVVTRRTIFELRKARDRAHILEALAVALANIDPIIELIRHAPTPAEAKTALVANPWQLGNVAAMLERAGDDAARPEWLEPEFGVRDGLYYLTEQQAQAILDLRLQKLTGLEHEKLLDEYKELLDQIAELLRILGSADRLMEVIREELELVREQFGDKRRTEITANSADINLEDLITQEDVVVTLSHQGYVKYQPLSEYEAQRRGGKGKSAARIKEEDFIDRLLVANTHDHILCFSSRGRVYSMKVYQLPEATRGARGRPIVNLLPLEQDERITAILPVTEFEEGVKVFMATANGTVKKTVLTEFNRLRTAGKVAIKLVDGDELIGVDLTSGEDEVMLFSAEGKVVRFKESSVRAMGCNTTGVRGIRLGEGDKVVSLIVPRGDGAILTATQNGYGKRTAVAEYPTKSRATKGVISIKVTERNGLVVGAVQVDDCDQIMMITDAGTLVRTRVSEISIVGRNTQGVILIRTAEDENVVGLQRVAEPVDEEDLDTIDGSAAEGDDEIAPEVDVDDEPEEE
Excerpt for E. coli B: A. Antibacterial activity in vitro
(§1) Agar dilution (MuellerHinton agar), Inoculum: 10^4 CFU/spot
Excerpt for P. aeruginosa 799/61: A. Antibacterial activity in vitro
as §1
Excerpt for S. aureus 25923: A. Antibacterial activity in vitro
as §1
Excerpt for S. aureus Smith: A. Antibacterial activity in vitro
as §1
Excerpt for S. epidermidis 16-2: A. Antibacterial activity in vitro
as §1

Turning to `COc1cc(O)c2c(c1C)C(=O)OCCCCC(=O)N[C@H](c1nc(CNC(C)C)no1)CSC2` [Example 132, (R)-16-hydroxy-4-[3-(isopropylamino)-methyl-1,2,4-oxadiazol-5-yl]-14-methoxy-13-methyl-1,3,4,5,6,7,8,9,10,12-decahydro-11,2,5-benzoxathiaazacyclotetradecin-6,12-dione hydrochloride], the MIC in the test with S. epidermidis 16-2 worked out at 0.5 µg/mL; in the test on S. pyogenes 15, 4 µg/mL; in the test with S. faecalis 6 it was 4 µg/mL; in the test with S. aureus 25923 it was 4 µg/mL; with E. coli B, 64 µg/mL; in the test on S. aureus Smith it was 2 µg/mL. Further, the MIC in the test on P. aeruginosa 799/61 is over 64 µg/mL.
For the compound `COC(=O)c1c(Br)c(OC)cc(O)c1CSC[C@H](Nc1nc(-c2ccc(C(=O)O)cc2)cs1)c1nc(C)no1` [Example 171], the MIC in the test with S. epidermidis 16-2 is 1 µg/mL (≈ 1.57 µM); in the test on S. pyogenes 15, 2 µg/mL (≈ 3.15 µM); in the test with S. faecalis 6, 4 µg/mL (≈ 6.29 µM); in the test with S. aureus 25923, 8 µg/mL (≈ 12.6 µM); in the test on E. coli B, over 64 µg/mL; in the test on S. aureus Smith, 4 µg/mL (≈ 6.29 µM). In the test on P. aeruginosa 799/61, the MIC was over 64 µg/mL.
For `COc1cc(O)c2c(c1C)C(=O)OCCCCC(=S)N[C@H](C(N)=O)CSC2` [Example 69, (R)-16-hydroxy-14-methoxy-13-methyl-12-oxo-6-thioxo-1,3,4,5,6,7,8,9,10,12-decahydro-11,2,5-benzoxathiaazacyclotetradecine-4-carboxylic acid amide], the MIC in the test on S. epidermidis 16-2 was 0.25 µg/mL (≈ 0.606 µM); in the test on S. pyogenes 15, 2 µg/mL (≈ 4.85 µM); with S. faecalis 6 it was 2 µg/mL (≈ 4.85 µM); in the test with S. aureus 25923, 4 µg/mL (≈ 9.7 µM); in the test with E. coli B, over 64 µg/mL; with S. aureus Smith it was 2 µg/mL (≈ 4.85 µM). For the same compound, the MIC with P. aeruginosa 799/61 is over 64 µg/mL. In addition, the “maximum non-effective concentration of the test compound (MNC)” value (from here on “maximum non-effective concentration”) at DNA gyrase worked out at 0.04 µg/mL.
In the case of `COc1cc(O)c2c(c1C)C(=O)OCCCCC(=S)N[C@H](c1nc(CN)no1)CSC2.Cl` [Example 130, (R)-4-(3-aminomethyl-1,2,4-oxadiazol-5-yl)-16-hydroxy-14-methoxy-13-methyl-6-thioxo-1,3,4,5,6,7,8,9,10,12-decahydro-11,2,5-benzoxathiaazacyclotetradecin-12-one hydrochloride], the MIC in the test on S. epidermidis 16-2 is 0.12 µg/mL; in the test on S. pyogenes 15 it was 0.5 µg/mL; in the test on S. faecalis 6 it was 0.5 µg/mL; in the test on S. aureus 25923, 0.5 µg/mL; in the test with E. coli B, 32 µg/mL; in the test on S. aureus Smith it was 0.25 µg/mL. Further, in the test with P. aeruginosa 799/61, the MIC turned out to be 64 µg/mL.
On to `COc1cc(O)c(CSC[C@H](NC(C)=O)c2nc(C)no2)c(C#N)c1C` [Example 97, (R)-N-[2-(2-cyano-6-hydroxy-4-methoxy-3-methyl-benzylsulfanyl]-1-(3-methyl-1,2,4-oxadiazol-5-yl)-ethyl]-acetamide], for which the MIC in the test on S. epidermidis 16-2 came to 1 µg/mL (≈ 2.66 µM); in the test with S. pyogenes 15, 16 µg/mL (≈ 42.5 µM); in the test on S. faecalis 6, 16 µg/mL (≈ 42.5 µM); with S. aureus 25923, 16 µg/mL (≈ 42.5 µM); with E. coli B it was 64 µg/mL (≈ 170 µM); in the test with S. aureus Smith, 8 µg/mL (≈ 21.3 µM). The MIC in the test with P. aeruginosa 799/61 came out at 64 µg/mL (≈ 170 µM). In addition, the “maximum non-effective concentration” value at DNA gyrase is 0.4 µg/mL.
Turning to `COc1cc(O)c2c(c1C)C(=O)O[C@H](CO)CCC(=S)N[C@H](c1nc(C)no1)CSC2` [Example 16, (4R,9S)-15-hydroxy-9-hydroxymethyl-13-methoxy-12-methyl-4-(3-methyl-1,2,4-oxadiazol-5-yl)-6-thioxo-3,4,5,6,7,8,9,11-octahydro-1H-10,2,5-benzoxathiaazacyclotridecine-11-one], the “maximum non-effective concentration” value on DNA gyrase amounted to 0.01 µg/mL.
Regarding `COc1cc(O)c2c(c1C)C(=O)OCCCCC(=O)N[C@H](c1nc(C)no1)CSC2` [Example 33, (R)-16-hydroxy-14-methoxy-13-methyl-4-(3-methyl-1,2,4-oxadiazol-5-yl)-1,3,4,5,6,7,8,9,10,12-decahydro-11,2,5-benzoxathiaazacyclotetradecine-6,12-dione], the MIC in the test with S. epidermidis 16-2 was 0.25 µg/mL (≈ 0.574 µM); with S. pyogenes 15, 1 µg/mL (≈ 2.3 µM); with S. faecalis 6, 0.5 µg/mL (≈ 1.15 µM); in the test with S. aureus 25923 it was 0.5 µg/mL (≈ 1.15 µM); with E. coli B it was 32 µg/mL (≈ 73.5 µM); in the test on S. aureus Smith, 0.25 µg/mL (≈ 0.574 µM). Further, the MIC in the test on P. aeruginosa 799/61 turned out to be 4 µg/mL (≈ 9.18 µM). In addition, on DNA gyrase, the “maximum non-effective concentration” value was found to be 0.01 µg/mL.
`COC(=O)c1c(Cl)c(OC)cc(O)c1CSC[C@H](NC(C)=S)c1nc(C)no1` [Example 92, (R)-2-chloro-5-hydroxy-3-methoxy-6-[2-(3-methyl-1,2,4-oxadiazol-5-yl)-2-thioacetylamino-ethylsulfanylmethyl]-benzoic acid methyl ester]: the MIC in the test with S. epidermidis 16-2 was 1 µg/mL (≈ 2.24 µM); in the test with S. pyogenes 15, 8 µg/mL (≈ 17.9 µM); in the test on S. faecalis 6, 8 µg/mL (≈ 17.9 µM); in the test with S. aureus 25923, 4 µg/mL (≈ 8.97 µM); in the test with E. coli B it was over 64 µg/mL; in the test with S. aureus Smith, 2 µg/mL (≈ 4.48 µM). For the same compound, in the test on P. aeruginosa 799/61, the MIC is 64 µg/mL (≈ 144 µM). Besides, on DNA gyrase, the “maximum non-effective concentration” value worked out at 0.04 µg/mL.
For `COC(=O)[C@@H]1CSCc2c(O)cc(OC)c(C)c2C(=O)OCCCCC(=S)N1` [Example 23, (R)-16-hydroxy-14-methoxy-13-methyl-12-oxo-6-thioxo-1,3,4,5,6,7,8,9,10,12-decahydro-11,2,5-benzoxathiaazacyclotetradecine-4-carboxylic acid methyl ester], the MIC is 0.12 µg/mL (≈ 0.281 µM) in the test with S. epidermidis 16-2; 2 µg/mL (≈ 4.68 µM) in the test on S. pyogenes 15; 1 µg/mL (≈ 2.34 µM) in the test with S. faecalis 6; 0.5 µg/mL (≈ 1.17 µM) in the test on S. aureus 25923; 16 µg/mL (≈ 37.4 µM) with E. coli B; 0.25 µg/mL (≈ 0.585 µM) in the test on S. aureus Smith. Besides, in the test with P. aeruginosa 799/61, the MIC is 8 µg/mL (≈ 18.7 µM). Further, the “maximum non-effective concentration” value on DNA gyrase was 0.01 µg/mL.
As to `CCCNC(=O)[C@@H]1CSCc2c(O)cc(OC)c(C)c2C(=O)OCCCCC(=S)N1` [Example 26, (R)-16-hydroxy-14-methoxy-13-methyl-12-oxo-6-thioxo-1,3,4,5,6,7,8,9,10,12-decahydro-11,2,5-benzoxathiaazacyclotetradecine-4-carboxylic acid propylamide], the MIC in the test on S. epidermidis 16-2 was 0.12 µg/mL (≈ 0.264 µM); in the test with S. pyogenes 15 it was 4 µg/mL (≈ 8.8 µM); with S. faecalis 6, 2 µg/mL (≈ 4.4 µM); in the test with S. aureus 25923 it was 2 µg/mL (≈ 4.4 µM); in the test with E. coli B it was over 64 µg/mL; in the test on S. aureus Smith it was 0.5 µg/mL (≈ 1.1 µM). Besides, the MIC with P. aeruginosa 799/61 came to 32 µg/mL (≈ 70.4 µM). On DNA gyrase, the “maximum non-effective concentration” value was 0.04 µg/mL.
As for `COc1cc(O)c2c(c1C)C(=O)OCCCCC(=O)N[C@H](c1nc(C)no1)C[S@@+]([O-])C2` [Example 111, (2S,4R)-16-hydroxy-14-methoxy-13-methyl-4-(3-methyl-1,2,4-oxadiazol-5-yl)-2-oxo-1,3,4,5,6,7,8,9,10,12-benzoxathiaazacyclotetradecin-6,12-dione], at DNA gyrase, the “maximum non-effective concentration” value was determined as 0.1 µg/mL.
In the case of `COC(=O)[C@@H]1CSCc2c(O)cc(OC)c(C)c2C(=O)O[C@H](COC(C)=O)CCC(=S)N1` [Example 11, (4R,9S)-9-acetoxymethyl-15-hydroxy-13-methoxy-12-methyl-11-oxo-6-thioxo-3,4,5,6,7,8,9,11-octahydro-1H-10,2,5-benzoxathiaazacyclotridecine-4-carboxylic acid methyl ester], the MIC is 0.12 µg/mL (≈ 0.247 µM) in the test on S. epidermidis 16-2; 2 µg/mL (≈ 4.12 µM) in the test with S. pyogenes 15; 2 µg/mL (≈ 4.12 µM) in the test with S. faecalis 6; 0.5 µg/mL (≈ 1.03 µM) with S. aureus 25923; over 64 µg/mL in the test on E. coli B; 0.5 µg/mL (≈ 1.03 µM) in the test with S. aureus Smith. In the test with P. aeruginosa 799/61, the MIC was 8 µg/mL (≈ 16.5 µM). The “maximum non-effective concentration” value at DNA gyrase is 0.02 µg/mL.
For `COC(=O)c1c(C)c(OC)cc(O)c1CSC[C@H](Nc1nc(-c2ccccc2)ns1)c1nc(C)no1` [Example 175, (R)-3-hydroxy-5-methoxy-6-methyl-2-[2-(3-methyl-1,2,4-oxadiazol-5-yl)-2-(3-phenyl-1,2,4-thiadiazol-5-ylamino)-ethylsulfanylmethyl]-benzoic acid methyl ester], the MIC in the test on S. epidermidis 16-2 was 1 µg/mL (≈ 1.9 µM); in the test with S. pyogenes 15 it was 4 µg/mL (≈ 7.58 µM); in the test on S. faecalis 6 it was 4 µg/mL (≈ 7.58 µM); in the test on S. aureus 25923, 4 µg/mL (≈ 7.58 µM); with E. coli B, over 64 µg/mL; in the test on S. aureus Smith, 1 µg/mL (≈ 1.9 µM). The MIC in the test on P. aeruginosa 799/61 is over 64 µg/mL.
For the compound `COc1cc(O)c2c(c1C)C(=O)OCCCCC(=S)N[C@H](c1nc(CNC(C)=O)no1)CSC2` [Example 142, (R)-N-[5-(16-hydroxy-14-methoxy-13-methyl-12-oxo-6-thioxo-1,3,4,5,6,7,8,9,10,12-decahydro-11,2,5-benzoxathiaazacyclotetradecin-4-yl)-1,2,4-oxadiazol-3-ylmethyl]-acetamide], the MIC in the test with S. epidermidis 16-2 is 0.12 µg/mL (≈ 0.236 µM); with S. pyogenes 15, 1 µg/mL (≈ 1.97 µM); in the test with S. faecalis 6 it was 1 µg/mL (≈ 1.97 µM); in the test on S. aureus 25923, 2 µg/mL (≈ 3.93 µM); with E. coli B it was 64 µg/mL (≈ 126 µM); with S. aureus Smith, 1 µg/mL (≈ 1.97 µM). In addition, the MIC in the test with P. aeruginosa 799/61 is over 64 µg/mL.
